Values joined by “and” are separate entries in the source; they are usually repeats but may differ in a detail not shown here. Identical values can stand only once.
Assays:
EP1 receptor = target: T1, EP1 receptor (Homo sapiens, UniProt P34995); test: EP1 agonist stimulation of colonic mucosa biopsies in MUAS-chambers, SCC; assay type: cell-based; details: biopsies exposed to the selective EP1 agonist
T1 construct: Four biopsies were mounted and oxygenated in MUAS-chambers after extraction; from tissue; host or cells: human colonic mucosa biopsies mounted in MUAS (modified Ussing) chambers
T1 sequence (P34995 1-402): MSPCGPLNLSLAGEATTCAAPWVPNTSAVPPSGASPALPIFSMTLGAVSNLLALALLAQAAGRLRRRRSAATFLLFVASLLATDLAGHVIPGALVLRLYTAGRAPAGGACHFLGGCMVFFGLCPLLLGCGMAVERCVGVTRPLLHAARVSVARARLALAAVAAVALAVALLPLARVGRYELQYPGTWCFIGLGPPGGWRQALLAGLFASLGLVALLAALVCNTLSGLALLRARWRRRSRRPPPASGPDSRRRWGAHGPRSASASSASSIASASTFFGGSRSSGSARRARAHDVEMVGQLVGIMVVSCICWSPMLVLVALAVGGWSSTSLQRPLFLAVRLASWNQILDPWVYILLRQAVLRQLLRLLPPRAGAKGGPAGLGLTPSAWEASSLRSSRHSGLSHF
Procedure: (§1) Four biopsies were mounted and oxygenated in MUAS-chambers after extraction as described by Larsen et al. generally within 45 min after extraction. Biopsies were bathed on both sides with 10 mL Ringer, supplemented with 5.5 mM D-glucose. Temperature was maintained at 37.2 °C by water jackets. An automated voltage-clamp device continuously recorded SCC and slope conductance.
(§2) Experiments began after a stable basal SCC was obtained within 10 min after proper mounting. All experiments were initiated by addition of amiloride (20 µM, mucosal side) to inhibit electrogenic sodium absorption mediated through epithelial sodium channels and followed by theophylline (400 µM, serosal side) to inhibit phosphodiesterase-dependent cyclic adenosine monophosphate (cAMP) degradation. Finally, to eliminate endogenous prostaglandin synthesis, indomethacin (13 µM, serosal side) was added and incubated for 40 min.
Biopsies from 47 patients were treated with PGE2 and selective EP receptor agonists to investigate receptor function, Table 1. A single agonist was added in increasing concentrations (1 nM to 5 µM, serosal side) to each MUAS-chamber. […]
To assess agonists and receptors, data obtained from dose–response curves were analyzed with either a single-Michaelis–Menten model (srm) or a two-Michaelis–Menten receptor/site model (trm) using Sigmaplot 13.0 for Windows, Systat Software Inc. (USA/Canada). […]

EP4 receptor [1] = target: T2, EP4 receptor (Homo sapiens, UniProt P35408); test: EP4 antagonist GW-X added before PGE2 dose-response in MUAS-chambers, agonist-based Cheng-Prusoff analysis; assay type: cell-based
T2 construct: Four biopsies were mounted and oxygenated in MUAS-chambers after extraction; from tissue; host or cells: human colonic mucosa biopsies mounted in MUAS (modified Ussing) chambers
Procedure: as §1, §2
Biopsies from 26 patients were treated with selective EP receptor antagonists, Table 1. A combination of 3 antagonists was added to each MUAS chamber (serosal side), to single out and investigate the remaining non-inhibited EP receptor subtype. After antagonist incubation (45 min), cumulative doses of PGE2 were added (3 nM to 1 µM, serosal side). The EP4 receptor was also examined with another selective antagonist, GW627368X (GW-X, 5 µM, serosal side).
(§3) To assess agonists and receptors, data obtained from dose–response curves were analyzed with either a single-Michaelis–Menten model (srm) or a two-Michaelis–Menten receptor/site model (trm) using Sigmaplot 13.0 for Windows, Systat Software Inc. (USA/Canada). Outcome data were maximum SCC responses (RMax) and EC50 of these analyses.
From 2 agonist dose-response curves, one determined in the absence of a competitive antagonist, the other in its presence at only a single concentration, it is possible to calculate the antagonist apparent half inhibition dissociation constant at equilibrium, […]. […]

EP receptors (EP1-4) = test: PGE2 stimulation of colonic mucosa biopsies in MUAS-chambers, short circuit current (SCC); assay type: cell-based, human
Procedure: as §1, §2
(§4) Biopsies from 47 patients were treated with PGE2 and selective EP receptor agonists to investigate receptor function, Table 1. A single agonist was added in increasing concentrations (1 nM to 5 µM, serosal side) to each MUAS-chamber. The final agonist concentration step was followed by the addition of 5 µM PGE2, to elicit a maximal PGE2-induced response.
as §3

EP4 receptor [2] = target: T2, EP4 receptor; test: EP4 agonist stimulation of colonic mucosa biopsies in MUAS-chambers, SCC; assay type: cell-based
Procedure: as §1, §2, §4, §3

T2 sequence (P35408 whole entry): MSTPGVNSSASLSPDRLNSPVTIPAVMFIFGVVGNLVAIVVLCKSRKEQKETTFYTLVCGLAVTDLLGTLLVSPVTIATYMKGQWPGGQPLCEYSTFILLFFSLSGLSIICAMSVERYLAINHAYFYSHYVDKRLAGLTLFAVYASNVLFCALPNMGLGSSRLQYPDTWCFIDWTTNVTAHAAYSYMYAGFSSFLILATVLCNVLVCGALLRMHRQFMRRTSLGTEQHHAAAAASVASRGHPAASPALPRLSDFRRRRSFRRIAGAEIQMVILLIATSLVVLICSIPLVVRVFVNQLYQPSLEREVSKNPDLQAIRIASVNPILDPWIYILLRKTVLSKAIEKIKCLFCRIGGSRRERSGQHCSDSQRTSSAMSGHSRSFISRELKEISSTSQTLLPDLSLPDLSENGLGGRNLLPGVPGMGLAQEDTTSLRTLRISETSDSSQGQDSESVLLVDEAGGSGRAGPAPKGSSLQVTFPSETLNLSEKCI

CCCC[C@H](C)C[C@H](O)/C=C/[C@H]1[C@H](O)CC(=O)[C@@H]1CC(=O)C1CCC(C(=O)O)CC1 (some centres unmarked) [EP1 agonist, ONO-DI004]
Biopsies showing no increase in SCC (EP1 receptor): 4 out of 22

CCOc1c2c(c(OCC)c3ccccc13)C(=O)N(c1ccc(CC(=O)NS(=O)(=O)c3ccccc3)cc1)C2 [GW-X, GW627368X]
Mean EC50 ratio (agonist EC50 with / without antagonist) (EP4 receptor [1]; GW-X 5 µM, 4 protocols): approximately 25
IC50 (EP4 receptor [1]; against PGE2 (and TCS 2510), GW-X 5 µM, from EC50 ratios, 14 individual experiments): ~210 nM and 210 nM
Type of inhibition of PGE2 (EP4 receptor [1]; low nanomolar PGE2 concentration range, rightward shift of the dose-response curve): competitive inhibition

CCCCC[C@H](O)/C=C/[C@H]1[C@H](O)CC(=O)[C@@H]1C/C=C\CCCC(=O)O [PGE2, Prostaglandin E2]
PGE2 concentration at which SCC increased (as low as) (EP receptors (EP1-4); both patient groups (CRN and CTRL), serosal side): ≤ 1 nM
EP4 receptor potency of PGE2 (EP receptors (EP1-4); normal appearing colonic mucosa): low nanomolar range
RMax rank among agonists (EP receptors (EP1-4); srm and trm): highest
Average separation factor between EC50s of high and low affinity receptors (EP receptors (EP1-4); two receptor model (trm)): 64

TCS 2510 [EP4 agonist]
RMax as share of the PGE2 response (EP4 receptor [2]; CRN patients): ~75%
RMax as share of the PGE2 response (EP4 receptor [2]; CTRL patients): approximately 50%
Sensitivity / potency for SCC increase (EP4 receptor [2]; similar sensitivity to PGE2): high potency in the low nanomolar range
EC50 in CRN patients compared to CTRLs (EP4 receptor [2]; single receptor model (srm)): higher
Average separation factor between EC50s of high and low affinity receptors (EP4 receptor [2]; two receptor model (trm)): 15
RMax of low affinity receptors in CRN patients (EP4 receptor [2]; two receptor model (trm)): significantly increased

Source: PMC9097415, “Nanomolar EP4 receptor potency and expression of eicosanoid-related enzymes in normal appearing colonic mucosa from patients with colorectal neoplasia” (BMC Gastroenterology, 2022)
